Data: patent US4192867A, “2-Deoxyfortimicin A, 4-N-alkyl and 4-N-acyl-2-deoxyfortimicin B derivatives” (Abbott Laboratories, priority 1977, dated 1980)
Structures can show the parent of a compound that is named as a salt. Where two headings read alike, the source gives them in different places.

Key:
[1] = test system: Sal. typhimurium Ed. #9; assay: In vitro antibiotic activity, two-fold dilution test (Mueller-Hinton agar); format: cell-based; settings: for MIC: Salmonella enterica, read-out: Minimum inhibitory concentration (MIC)
Experimental: (§1) The in vitro antibiotic activities are determined by a two-fold dilution test using Mueller-Hinton agar, 10 ml per Petri plate. The inoculum of approximately 1×10^5 of the indicated test organism is delivered by the Steer's replicator. The test is incubated at 37° C. for 24 hours. Fortimicin A tetrahydrochloride and fortimicin A disulfate are used as the control antibiotics. The minimum inhibitory concentrations (MIC), listed in Table I, are expressed in mcg/ml.

[2] = test system: Psuedo. aeruginosa 209; assay: as above; format: cell-based; settings: for MIC: read-out: Minimum inhibitory concentration (MIC)
Experimental: as §1

[3] = test system: Shigella sonnei 9290; assay: as above; format: cell-based; settings: 37° C.; for Minimum inhibitory concentration (MIC): 24 hours
Experimental: as §1

[4] = test system: Kleb. pneumoniae 10031; assay: as above; format: cell-based
Experimental: as §1

[5] = test system: Psuedo. aeruginosa 27853; assay: as above; format: cell-based
Experimental: as §1

[6] = test system: E. coli Juhl; assay: as above; format: cell-based; settings: for MIC: Escherichia coli, read-out: Minimum inhibitory concentration (MIC)
Experimental: as §1

[7] = test system: Kleb. pneumoniae KY 4262; assay: as above; format: cell-based; settings: for MIC: Klebsiella pneumoniae
Experimental: as §1

[8] = test system: Strep. faecalis 10541; assay: as above; format: cell-based; settings: for MIC: read-out: Minimum inhibitory concentration (MIC)
Experimental: as §1

[9] = test system: Proteus vulgaris JJ; assay: as above; format: cell-based; settings: for MIC: read-out: Minimum inhibitory concentration (MIC)
Experimental: as §1

[10] = test system: E. coli BL 3676 (Res); assay: as above; format: cell-based; settings: for MIC: Escherichia coli, read-out: Minimum inhibitory concentration (MIC)
Experimental: as §1

[11] = test system: Pseudo. aeruginosa BMH #10; assay: as above; format: cell-based; settings: for MIC: Pseudomonas aeruginosa, read-out: Minimum inhibitory concentration (MIC)
Experimental: as §1

[12] = test system: Proteus rettigeri U6333; assay: as above; format: cell-based
Experimental: as §1

[13] = test system: Providencia 1577; assay: as above; format: cell-based; settings: for MIC: read-out: Minimum inhibitory concentration (MIC)
Experimental: as §1

[14] = test system: E. coli 76-2; assay: as above; format: cell-based
Experimental: as §1

[15] = test system: Staph. aureus Smith; assay: as above; format: cell-based; settings: for MIC: Staphylococcus aureus, read-out: Minimum inhibitory concentration (MIC)
Experimental: as §1

[16] = test system: Pseudo. aeruginosa KY 8512; assay: as above; format: cell-based; settings: for MIC: Pseudomonas aeruginosa
Experimental: as §1

[17] = test system: Serratis marcescens 4003; assay: as above; format: cell-based
Experimental: as §1

[18] = test system: Enterobacter aerogenes 13048; assay: as above; format: cell-based; settings: for MIC: read-out: Minimum inhibitory concentration (MIC)
Experimental: as §1

[19] = test system: Proteus mirabilis Fin. #9; assay: as above; format: cell-based; settings: for MIC: read-out: Minimum inhibitory concentration (MIC)
Experimental: as §1

[20] = test system: Pseudo. aeruginosa KY 8516; assay: as above; format: cell-based; settings: for MIC: Pseudomonas aeruginosa
Experimental: as §1

[21] = test system: Proteus mirabilis (Fin 9); assay: Acute mouse protection test; format: in vivo, Proteus mirabilis; female, swiss albino mice; settings: ip, 168 h, read-out: Effective Dose50 (ED50)
Experimental: (§2) The acute mouse protection test is conducted on 10 mice with each of 5 levels of dug. Mouse mortality is used to calculate a ED50 value, i.e., dose of drug required to protect 50% of the test animals.
(§3) The acute mouse protection test is conducted on female, swiss albino mice, 18-20 grams in weight. The mice are injected intraperitoneally with an 18 hour culture of the indicated test organism diluted sufficiently to provide the desired LD50 value. To check potency of the infection a titration of the indicated test organism is carried out in control animals. The treatment group of animals is dosed with the test fortimicin at one and five hours post-infection and observed for seven days. The ED50 values are calculated using the mortality data collected.

[22] = test system: Klebsiella pneumoniae (4508); assay: Acute mouse protection test; format: in vivo, Klebsiella pneumoniae; female, swiss albino mice; settings: ip, 168 h, read-out: Effective Dose50 (ED50)
Experimental: as §2, §3

[23] = test system: Escherichia coli (Juhl); assay: Acute mouse protection test; format: in vivo, Escherichia coli; female, swiss albino mice; settings: ip, 168 h, read-out: Effective Dose50 (ED50)
Experimental: as §2, §3

[24] = Sal. typhimurium Ed. #9, Mueller-Hinton agar, 37° C., 24 hours
[25] = Psuedo. aeruginosa 209, Mueller-Hinton agar, 37° C., 24 hours
[26] = E. coli Juhl, Mueller-Hinton agar, 37° C., 24 hours
[27] = Proteus vulgaris JJ, Mueller-Hinton agar, 37° C., 24 hours
[28] = E. coli BL 3676 (Res), Mueller-Hinton agar, 37° C., 24 hours
[29] = Pseudo. aeruginosa BMH #10, Mueller-Hinton agar, 37° C., 24 hours
[30] = Providencia 1577, Mueller-Hinton agar, 37° C., 24 hours
[31] = Staph. aureus Smith, Mueller-Hinton agar, 37° C., 24 hours
[32] = Proteus mirabilis Fin. #9, Mueller-Hinton agar, 37° C., 24 hours

## COC1C(O)C(N)C(OC2OC(C(C)N)CCC2N)C(O)C1N(C)C(=O)CN (stereo not drawn) [Fortimicin A tetrahydrochloride]
[1]; [24]
  Minimum inhibitory concentration (MIC): 1.56 µg/mL
[2]; [25]
  Minimum inhibitory concentration (MIC): > 100 µg/mL
[3]
  Minimum inhibitory concentration (MIC): 12.5 µg/mL
[4]; Kleb. pneumoniae 10031, 37° C., 24 hours
  Minimum inhibitory concentration (MIC): 1.56 µg/mL
[5]; Psuedo. aeruginosa 27853, 37° C., 24 hours
  Minimum inhibitory concentration (MIC): 25 µg/mL
[6]; [26]
  Minimum inhibitory concentration (MIC): 6.2 µg/mL
[7]; Kleb. pneumoniae KY 4262, 37° C., 24 hours
  Minimum inhibitory concentration (MIC): 3.1 µg/mL
[8]; Strep. faecalis 10541, Mueller-Hinton agar, 37° C., 24 hours
  Minimum inhibitory concentration (MIC): 50 µg/mL
[9]; [27]
  Minimum inhibitory concentration (MIC): 6.2 µg/mL
[10]; [28]
  Minimum inhibitory concentration (MIC): 25 µg/mL
[11]; [29]
  Minimum inhibitory concentration (MIC): 0.78 µg/mL
[12]; Proteus rettigeri U6333, 37° C., 24 hours
  Minimum inhibitory concentration (MIC): 25 µg/mL
[13]; [30]
  Minimum inhibitory concentration (MIC): 3.1 µg/mL
[14]; E. coli 76-2, 37° C., 24 hours
  Minimum inhibitory concentration (MIC): 3.1 µg/mL
[15]; [31]
  Minimum inhibitory concentration (MIC): 0.78 µg/mL
[16]; Pseudo. aeruginosa KY 8512, 37° C., 24 hours
  Minimum inhibitory concentration (MIC): 25 µg/mL
[17]; Serratis marcescens 4003, 37° C., 24 hours
  Minimum inhibitory concentration (MIC): 3.1 µg/mL
[18]; Enterobacter aerogenes 13048, Mueller-Hinton agar, 37° C., 24 hours
  Minimum inhibitory concentration (MIC): 3.1 µg/mL
[19]; [32]
  Minimum inhibitory concentration (MIC): 6.2 µg/mL
[20]; Pseudo. aeruginosa KY 8516, 37° C., 24 hours
  Minimum inhibitory concentration (MIC): 100 µg/mL

## COC1CC(N)C(OC2OC(C(C)N)CCC2N)C(O)C1N(C)C(=O)CN (stereo not drawn) [2-deoxyfortimicin A tetrahydrochloride, 2-Deoxyfortimicin A Tetrahydrochloride]
[1]; [24]
  MIC: 1.56 µg/mL
[2]; [25]
  MIC: > 100 µg/mL
[3]; Shigella sonnei, 9290, 24 h, read-out: Minimum inhibitory concentration (MIC)
  MIC: 6.2 µg/mL
[4]; Klebsiella pneumoniae, Kleb. pneumoniae 10031, 37° C., 24 hours, read-out: Minimum inhibitory concentration (MIC)
  MIC: 1.56 µg/mL
[5]; Psuedo. aeruginosa 27853, 37° C., 24 hours, read-out: Minimum inhibitory concentration (MIC)
  MIC: 12.5 µg/mL
[6]; [26]
  MIC: 6.2 µg/mL
[7]; KY4262, Kleb. pneumoniae KY 4262, 37° C., 24 hours, read-out: Minimum inhibitory concentration (MIC)
  MIC: 6.2 µg/mL
[8]; Enterococcus faecalis, Strep. faecalis 10541, Mueller-Hinton agar, 37° C., 24 hours
  MIC: 50 µg/mL
[9]; [27]
  MIC: 3.1 µg/mL
[10]; [28]
  MIC: 25 µg/mL
[11]; [29]
  MIC: 0.78 µg/mL
[12]; Proteus rettigeri U6333, 37° C., 24 hours, read-out: Minimum inhibitory concentration (MIC)
  MIC: 25 µg/mL
[13]; [30]
  MIC: 3.1 µg/mL
[14]; Escherichia coli, 762, E. coli 76-2, 37° C., 24 hours, read-out: Minimum inhibitory concentration (MIC)
  MIC: 3.1 µg/mL
[15]; [31]
  MIC: 0.78 µg/mL
[16]; KY8512, Pseudo. aeruginosa KY 8512, 37° C., 24 hours, read-out: Minimum inhibitory concentration (MIC)
  MIC: 12.5 µg/mL
[17]; Serratis marcescens 4003, 37° C., 24 hours, read-out: Minimum inhibitory concentration (MIC)
  MIC: 3.1 µg/mL
[18]; Klebsiella aerogenes, Enterobacter aerogenes 13048, Mueller-Hinton agar, 37° C., 24 hours
  MIC: 3.1 µg/mL
[19]; [32]
  MIC: 6.2 µg/mL
[20]; KY8516, Pseudo. aeruginosa KY 8516, 37° C., 24 hours, read-out: Minimum inhibitory concentration (MIC)
  MIC: 50 µg/mL
[21]; Proteus mirabilis (Fin 9) infected intraperitoneally, dosed one and five hours post-infection, observed seven days
  ED50: 4.7 mg/kg
[22]; Klebsiella pneumoniae (4508) infected intraperitoneally, dosed one and five hours post-infection, observed seven days
  ED50: 1.5 mg/kg
[23]; Escherichia coli (Juhl) infected intraperitoneally, dosed one and five hours post-infection, observed seven days
  ED50: 4.7 mg/kg

## COC1C(O)C(N)C(OC2OC(C(C)N)CCC2N)C(O)C1N(C)C(=O)CN (stereo not drawn) [Fortimicin A disulfate, fortimicin A disulfate]
[1]; TYPHIMURIUM, 24 h
  MIC: 1.56 µg/mL
[2]; 24 h
  MIC: > 100 µg/mL
[3]
  Minimum inhibitory concentration (MIC): 6.2 µg/mL
[4]; Klebsiella pneumoniae, 10031, 24 h, read-out: Minimum inhibitory concentration (MIC), Kleb. pneumoniae 10031, 37° C.
  MIC: 3.1 µg/mL
[5]; 24 h, read-out: Minimum inhibitory concentration (MIC), Psuedo. aeruginosa 27853, 37° C.
  MIC: 12.5 µg/mL
[6]; 24 h
  MIC: 6.2 µg/mL
[7]; KY4262, 24 h, read-out: Minimum inhibitory concentration (MIC), Kleb. pneumoniae KY 4262, 37° C.
  MIC: 6.2 µg/mL
[8]; Enterococcus faecalis, 10541, 24 h
  MIC: 50 µg/mL
[9]; Proteus vulgaris, 24 h
  MIC: 6.2 µg/mL
[10]; 24 h
  MIC: 25 µg/mL
[11]; 24 h
  MIC: 0.78 µg/mL
[12]; 24 h, read-out: Minimum inhibitory concentration (MIC), Proteus rettigeri U6333, 37° C.
  MIC: 12.5 µg/mL
[13]; Providencia, 1577, 24 h
  MIC: 3.1 µg/mL
[14]; Escherichia coli, 762, 24 h, read-out: Minimum inhibitory concentration (MIC), E. coli 76-2, 37° C.
  MIC: 6.2 µg/mL
[15]; 24 h
  MIC: 0.78 µg/mL
[16]; KY8512, 24 h, read-out: Minimum inhibitory concentration (MIC), Pseudo. aeruginosa KY 8512, 37° C.
  MIC: 12.5 µg/mL
[17]; 24 h, read-out: Minimum inhibitory concentration (MIC), Serratis marcescens 4003, 37° C.
  MIC: 1.56 µg/mL
[18]; Klebsiella aerogenes, 13048, 24 h
  MIC: 3.1 µg/mL
[19]; Proteus mirabilis, 24 h
  MIC: 6.2 µg/mL
[20]; KY8516, 24 h, read-out: Minimum inhibitory concentration (MIC), Pseudo. aeruginosa KY 8516, 37° C.
  MIC: 50 µg/mL
[21]; Proteus mirabilis
  ED50: 7.5 mg/kg
[22]; Klebsiella pneumoniae
  ED50: 2.5 mg/kg
[23]; Escherichia coli
  ED50: 4.6 mg/kg
